Results: patent US9095599B2, “O-(substituted benzyl) phosphoramidate compounds and therapeutic use” (Nanjing Molecular Research, Inc., priority 2011, dated 2015)
“Also recorded” adds a separate entry of the source.

Assays:
[1] = Cytotoxicity assay (LTR-luc luciferase reporter); format: cell-based; conditions: human; Huh-7 LTR-luc cells
Text: (§1) The anti-HCV activity and toxicity of the exemplary compounds can be tested in two biological assays—a cell-based HCV replicon assay and cytotoxicity assay (WO 2007/027248).
A Huh-7 cell line carrying a luciferase reporter gene (driven by a HIV LTR promoter) stably integrated into the chromosome was used to analyze the cytotoxic effect of the selected compounds. This cell line (LTR-luc) was maintained in DMEM medium with 10% FBS. Design of the cytotoxicity assay was similar to that of the HCV replicon assay. Reduction of luciferase activity in the treated cells correlated with the cytotoxic effect of the test compound and was used to calculate the CC50 value (concentration that inhibited cell growth by 50%).
(§2) The biological activities using subgenomic genotype 1a replicon and cytotoxicity of the selected compounds are summarized in Table 2.

[2] = tested on: HCV subgenomic replicon (genotype 1a) in Huh-7 cells; test: HCV replicon assay (luciferase reporter); format: cell-based; conditions: for EC50: Hepatitis C virus, subgenomic genotype 1a replicon, Huh-7 luc-ubi-neo, 48 h, diastereomer mixtures
Method: Anti-HCV activity and cytotoxicity of compounds disclosed herein were assayed following patent method (WO 2007/027248).
as §1
A human hepatoma cell line (Huh-7) containing replicating HCV subgenomic replicon with a luciferase reporter gene (luc-ubi-neo) was used to evaluate anti-HCV activity of the compounds. In this assay, level of luciferase signal correlates with the viral RNA replication directly. The HCV replicon-reporter cell line (NK/luc-ubi-neo) was cultured in DMEM medium supplemented with 10% fetal bovine serum and 0.5 mg/ml Geneticin (G418). Cells were maintained in a subconfluent state to ensure high levels of HCV replicon RNA synthesis.
To evaluate the antiviral activity of compounds, serial dilutions were prepared with concentrations ranging from 0.14 to 300 μM. Diluted compounds were transferred to a 96-well plate followed by the addition of replicon cells (6000 cells per well). Cells were incubated with the compounds for 48 h after which luciferase activity was measured. Reduction of luciferase signal reflected the decrease of HCV replicon RNA in the treated cells and used to determine the EC50 value (concentration which yielded a 50% reduction in luciferase activity).
as §2

[3] = Rat plasma and liver PK after iv administration; format: in vivo, SD rats
Method: Pharmacokinetic (PK) study of prodrug FDURP (DGX-102) and parent drug (FDUR) in rats was completed according to following procedure.
SD rats (250-300 g, male, N=15) were used for each compound, purchased from SLAC Laboratory Animal Co. LTD Qualification No.: SCXK (SH) 2007-0005, 13264. Compounds FDUR and FDURP were each dosed via tail vein injection. The animal was restrained manually at designated time points. Approximately 500 μL of blood/time point was collected into K2EDTA tube via cardiac puncture for terminal bleeding under anesthesia with Isoflurane. FDUR and FDURP blood samples were put on ice after collection and then centrifuged to obtain plasma sample (2000 g, 5 min, 4° C.) within 15 minutes of sampling. The blood samples were then centrifuged to obtain plasma sample (2000 g, 5 min, 4° C.). All the plasma samples were immediately quenched for protein precipitation. Liver samples of each compound were removed at designated time points by first sacrificing the animal by CO2 inhalation, then perfusing the liver with ice cold saline and removing the left middle liver lobe, which was then snap frozen in dry ice. Liver samples were stored at approximately −80° C. until analysis. The liver homogenate was then processed for further analysis by LC/MS-MS. Plasma and liver samples were stored at approximately −80° C. until analysis.
Concentrations of prodrugs, parent drug and possible metabolites in both plasma and liver including FDURMP, FDUR, FDUR-MP and 5FU were determined by LC/MS-MS.

## COc1ccc(COP(=O)(NCc2ccccc2)OCC2OC(n3ccc(=O)[nH]c3=O)C(C)(F)C2O)cc1F (centres unmarked) [DGX-104]
[1]
  CC50: > 100 µM
[2]
  anti-HCV activity (in words): biologically potent; also recorded: potent anti-HCV activity
  EC50: 4.1 µM

## Cc1ccccc1COP(=O)(NCc1ccccc1)OCC1OC(n2cc(F)c(=O)[nH]c2=O)CC1O (centres unmarked) [FDURP]
[3]; iv
  Active metabolite FDUR-MP in the liver after administration: detected in the liver
  Concentrations of related active drugs (FDUR, FDUR-MP, 5FU) compared with administration of FDUR: significantly increased
  Exposure in plasma and liver compared with parent drug FDUR: significantly greater
[3]; male, Sprague-Dawley, liver, 0.015 mmol/kg, monitored compound FDURP, iv
  Tmax: 60 min
[3]; male, Sprague-Dawley, plasma, 0.015 mmol/kg, monitored compound FDURP, iv
  AUC(0-inf): 10400 ng·h/mL
[3]; male, Sprague-Dawley, plasma, 0.015 mmol/kg, monitored compound FDURP, iv, printed in Tmax column, read-out: plasma T½ (converted)
  half-life: 27 min
[3]; monitored compound FDURP, iv
  liver AUC(inf): 1750 ng·h/mL
  liver Cmax: 1573 ng/mL
[3]; sampling 1, iv 0.015 mmol/kg
  Drug FDUR Concentration, Liver: BQL
[3]; sampling 2, iv 0.015 mmol/kg
  Drug FDUR Concentration, Liver: BQL
[3]; sampling 4, iv 0.015 mmol/kg
  Drug FDUR Concentration, Plasma: BQL
[3]; sampling 8, iv 0.015 mmol/kg
  Drug FDUR Concentration, Plasma: BQL
[3]; sampling 24, iv 0.015 mmol/kg
  Drug FDUR Concentration, Plasma: BQL

## CC1(F)C(O)C(CO)OC1n1ccc(=O)[nH]c1=O (centres unmarked) [DGX-103]
[1]
  CC50: > 100 µM
[2]
  anti-HCV activity (in words): biologically inactive
  EC50: > 100 µM

## O=c1[nH]c(=O)n([C@H]2C[C@H](O)[C@@H](CO)O2)cc1F [FDUR, 5-fluoro-2′-deoxyuridine, reference compound]
[3]; iv
  Active metabolite FDUR-MP in the liver after administration: not
[3]; monitored compound 5FU, iv
  liver Cmax: BQL
[3]; monitored compound FDUR, iv
  liver Cmax: BQL
[3]; monitored compound FDUR-MP, iv
  liver Cmax: BQL
[3]; sampling 1, iv 0.015 mmol/kg
  Drug FDUR Concentration, Liver: BQL
[3]; sampling 2, iv 0.015 mmol/kg
  Drug FDUR Concentration, Liver: BQL
  Drug FDUR Concentration, Plasma: BQL
[3]; sampling 4, iv 0.015 mmol/kg
  Drug FDUR Concentration, Liver: BQL
  Drug FDUR Concentration, Plasma: BQL
[3]; sampling 8, iv 0.015 mmol/kg
  Drug FDUR Concentration, Liver: BQL
  Drug FDUR Concentration, Plasma: BQL
[3]; sampling 24, iv 0.015 mmol/kg
  Drug FDUR Concentration, Liver: BQL
  Drug FDUR Concentration, Plasma: BQL

## CC1(F)C(O)C(COP(=O)(NCc2ccccc2)OCc2ccccc2)OC1n1ccc(=O)[nH]c1=O (centres unmarked) [DGX-106]
[1]
  CC50: > 100 µM
[2]
  anti-HCV activity (in words): did not show any anti-HCV activity
  EC50: > 100 µM

## Cc1ccccc1COP(=O)(NCc1ccccc1)OCC1OC(n2ccc(=O)[nH]c2=O)C(C)(F)C1O (centres unmarked) [DGX-105]
[1]
  CC50: > 100 µM
[2]
  anti-HCV activity (in words): biologically potent; also recorded: potent anti-HCV activity
  EC50: 1.9 µM

## COc1nc(N)nc2c1ncn2C1OC(COP(=O)(NCc2ccccc2)OCc2ccccc2C)C(O)C1(C)O (centres unmarked) [DGX-111]
[1]
  CC50: 69 µM
[2]
  anti-HCV activity (in words): biologically much more potent
  EC50: 0.3 µM

## COc1nc(N)nc2c1ncn2C1OC(CO)C(O)C1(C)O (centres unmarked) [DGX-110]
[1]
  CC50: > 100 µM
[2]
  anti-HCV activity (in words): biologically active
  EC50: 0.9 µM
